Data set [1] in a line: Solubility in buffers or solutions, LC-MS/MS. The class given is physicochemical. The note with it: for Solubility (mg/ml): 37° C., 24 hrs. On the procedure:
The method for measuring the solubilities of the formulations is briefly described. The test formulation was added into indicated buffers or solutions (ddH2O or 0.9% saline, pH 7.4) to the final concentration of 3 mg/mL, followed by sonicating for 30 mins. Next, the mixture was put into 37° C. water bath for 24 hrs. The mixture was mixed well by vortex and 1 mL of mixture was transferred into the 1.5 mL eppendorf tube, followed by centrifuging at 20817 xg for 30 mins. 10 μL of the supernatant was collected, and the concentration of the collected supernatant was determined by LC-MS/MS.

For data set [2] the following is noted: indicates poor aqueous solubility but good membrane permeability; cited from earlier work.
Data set [3] in a line: In vitro dissolution testing, USP apparatus Type 2 (paddles). In kind it is physicochemical. The note with it: pH 6.8 phosphate buffer with 0.25% SDS, 900 mL, 75 rpm, 37° C. On the procedure: In vitro dissolution testing was performed using an USP dissolution apparatus Type 2 (paddles) at 75 rpm (250 rpm at infinity) using 900 mL phosphate buffer pH 6.8 with 0.25% w/v SDS as the dissolution medium at 37 0.5° C.

Data set [4] in a line: Oral bioavailability / pharmacokinetics in Beagle dogs. The note with it: dog, plasma, pH 7.4, IV bolus, 40 to 50 mg, vehicle 0.1M NaHCO3 pH7.4, read-out: AUC (area under the curve) of IV bolus. The class given is in vivo.
Method: Briefly, three healthy, research Beagle dogs, aged 4˜10 years and body weight 9˜12 kg were used. The pharmacokinetics experiments have intravenous bolus (IV bolus) and oral groups.
For the IV bolus and oral groups, the dogs received the drugs after fasting for 4 hours, and the blood samples of the dogs were taken before administration. The blood samples were collected at pre-assigned times (10 min, 1 hr, 2 hr, 4 hr, 5 hr, 7 hr and 24 hr) after administration. The concentrations of the drug in plasma were determined with validated high performance liquid chromatography.
The plasma concentration data were analyzed and modeled by the non-compartmental analysis to obtain pharmacokinetics parameters.

Values after ≈ are worked out from the molar mass of the structure shown.

One may read the solubility as the concentration that dissolves in the medium under given conditions. For `CCOC(=O)CCNC(=O)c1ccc(N[C@H](c2ccc(-c3nnc(-c4ccccc4)o3)cc2)C(C)C)cc1` [ALP001E], the “Solubility (mg/ml)” value in data set [1] (H2O (pH 7.0)) and in data set [1] (Saline (pH 7.4)) was “<LOQ” each time. Also, the solubility at 24 h in data set [1] (USP pH 6.8 buffer, aqueous buffer, thermodynamic from solid, USP pH 6.8, 37° C.) is 0.44 µg/mL (≈ 0.858 µM). Moreover, in data set [2], the “Biopharmaceutical Classification System (BCS) class” value is given as “Class II”. For the same compound, the In vitro dissolution in data set [3] (0 min) was determined as 0.00%; in data set [3] (5 min), 4.40%; in data set [3] (10 min), 3.69%; in data set [3] (15 min) it was 4.73%; in data set [3] (20 min), 2.87%; in data set [3] (30 min), 1.18%. Also, the In vitro dissolution in data set [3] (45 min) is recorded as 1.26%; in data set [3] (60 min), 2.11%; in data set [3] (90 min), 2.77%; in data set [3] (120 min), 13.04%.

What is called AUC is concentration integrated over time. As to `CC(C)[C@H](Nc1ccc(C(=O)NCCC(=O)O)cc1)c1ccc(-c2nnc(-c3ccccc3)o2)cc1` [ALP001], the AUC in data set [4] worked out at 2180 ng·h/mL.

The values are drawn from US20210330648A1, “Pharmaceutical composition and use thereof” (ALPHALA CO., LTD., priority 2020, published 2021).
